Test results published in PubChem BioAssay (NCI).
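Exposure lasted 48 hours, with cells grown in 96-well plates and compounds tested at five concentrations. GI50 is the concentration that inhibits growth by half. TGI is the concentration that stops growth completely.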

Experiments:
Experiment in all cases: DTP human tumour cell line panel, 48 h
[1] = tested on: BT-549 breast
[2] = tested on: HS 578T breast
[3] = tested on: NCI/ADR-RES ovarian
[4] = tested on: A498 renal
[5] = tested on: SK-MEL-5 melanoma
[6] = tested on: UACC-257 melanoma
[7] = tested on: HCC-2998 colon
[8] = tested on: IGROV1 ovarian
[9] = tested on: MOLT-4 leukemia
[10] = tested on: SF-295 CNS
[11] = tested on: NCI-H460 lung
[12] = tested on: HCT-15 colon
[13] = tested on: SF-539 CNS
[14] = tested on: CAKI-1 renal
[15] = tested on: SK-MEL-28 melanoma
[16] = tested on: T-47D breast
[17] = tested on: KM12 colon
[18] = tested on: COLO 205 colon
[19] = tested on: MALME-3M melanoma
[20] = tested on: SK-OV-3 ovarian
[21] = tested on: ACHN renal
[22] = tested on: UO-31 renal
[23] = tested on: TK-10 renal
[24] = tested on: SNB-75 CNS
[25] = tested on: OVCAR-8 ovarian
[26] = tested on: SK-MEL-2 melanoma
[27] = tested on: SR leukemia
[28] = tested on: OVCAR-4 ovarian
[29] = tested on: A549 NSCLC
[30] = tested on: LOX IMVI melanoma
[31] = tested on: M14 melanoma
[32] = tested on: NCI-H226 lung
[33] = tested on: PC-3 prostate
[34] = tested on: NCI-H522 lung
[35] = tested on: CCRF-CEM leukemia
[36] = tested on: MDA-MB-435
[37] = tested on: NCI-H23 lung
[38] = tested on: SW-620 colon
[39] = tested on: K-562 leukemia
[40] = tested on: HT29 colon
[41] = tested on: U251 CNS
[42] = tested on: RXF 393 renal
[43] = tested on: UACC-62 melanoma
[44] = tested on: HOP-92 NSCLC
[45] = tested on: MCF7 breast
[46] = tested on: SF-268 CNS
[47] = tested on: HCT-116 colon
[48] = tested on: 786-0 renal
[49] = tested on: SN12C renal
[50] = tested on: EKVX NSCLC
[51] = tested on: HOP-62 NSCLC
[52] = tested on: MDA-MB-231 breast
[53] = tested on: DU-145 prostate
[54] = tested on: RPMI-8226 leukemia
[55] = tested on: SNB-19 CNS
[56] = tested on: OVCAR-3 ovarian
[57] = tested on: OVCAR-5 ovarian

Q: With `COc1cc2oc(-c3cccc(C(=O)Nc4ccc(Cl)cc4)c3)cc(=O)c2c(OC)c1OC` as the compound, how does the GI50 [1] read?
A: 1.18 µM

Q: What about the TGI [1] of the same compound?
A: > 100 µM

Q: What about the GI50 [2] of the same compound?
A: 2.95 µM

Q: And the TGI [2]?
A: > 100 µM

Q: What about the GI50 [3] of the same compound?
A: 1.81 µM

Q: What about the TGI [3] of the same compound?
A: > 100 µM

Q: What about the GI50 [4] of the same compound?
A: 2 µM

Q: What about the TGI [4] of the same compound?
A: 7.82 µM

Q: What about the GI50 [5] of the same compound?
A: 1.28 µM

Q: What about the TGI [5] of the same compound?
A: 2.68 µM

Q: And the GI50 [6]?
A: 2.53 µM

Q: What about the TGI [6] of the same compound?
A: 5.72 µM

Q: And the GI50 [7]?
A: 3.05 µM

Q: And the TGI [7]?
A: > 100 µM

Q: And the GI50 [8]?
A: 2.31 µM

Q: What about the TGI [8] of the same compound?
A: > 100 µM

Q: What about the GI50 [9] of the same compound?
A: 2.22 µM

Q: What about the TGI [9] of the same compound?
A: > 100 µM

Q: And the GI50 [10]?
A: 1.47 µM

Q: And the TGI [10]?
A: 3.51 µM

Q: What about the GI50 [11] of the same compound?
A: 2.76 µM

Q: And the TGI [11]?
A: > 100 µM

Q: And the GI50 [12]?
A: 1.61 µM

Q: What about the TGI [12] of the same compound?
A: > 100 µM

Q: And the GI50 [13]?
A: 2.56 µM

Q: And the TGI [13]?
A: > 100 µM

Q: What about the GI50 [14] of the same compound?
A: 1.79 µM

Q: And the TGI [14]?
A: 7.84 µM

Q: And the GI50 [15]?
A: 1.84 µM

Q: And the TGI [15]?
A: 5.89 µM

Q: And the GI50 [16]?
A: 1.68 µM

Q: What about the TGI [16] of the same compound?
A: > 100 µM

Q: What about the GI50 [17] of the same compound?
A: 2.37 µM

Q: And the TGI [17]?
A: > 100 µM

Q: And the GI50 [18]?
A: 1.47 µM

Q: What about the TGI [18] of the same compound?
A: 4.04 µM

Q: And the GI50 [19]?
A: 2.48 µM

Q: What about the TGI [19] of the same compound?
A: 7.26 µM

Q: And the GI50 [20]?
A: 3.41 µM

Q: What about the TGI [20] of the same compound?
A: > 100 µM

Q: And the GI50 [21]?
A: 3.17 µM

Q: What about the TGI [21] of the same compound?
A: > 100 µM

Q: What about the GI50 [22] of the same compound?
A: 2.85 µM

Q: What about the TGI [22] of the same compound?
A: > 100 µM

Q: What about the GI50 [23] of the same compound?
A: 3.22 µM

Q: And the TGI [23]?
A: > 100 µM

Q: What about the GI50 [24] of the same compound?
A: 2.66 µM

Q: And the TGI [24]?
A: > 100 µM

Q: What about the GI50 [25] of the same compound?
A: 3.44 µM

Q: What about the TGI [25] of the same compound?
A: > 100 µM

Q: And the GI50 [26]?
A: 2.96 µM

Q: And the TGI [26]?
A: 9.22 µM

Q: And the GI50 [27]?
A: 0.493 µM

Q: What about the TGI [27] of the same compound?
A: > 100 µM

Q: And the GI50 [28]?
A: 3.05 µM

Q: And the TGI [28]?
A: > 100 µM

Q: And the GI50 [29]?
A: 3.56 µM

Q: And the TGI [29]?
A: > 100 µM

Q: And the GI50 [30]?
A: 0.413 µM

Q: What about the TGI [30] of the same compound?
A: > 100 µM

Q: And the GI50 [31]?
A: 1.38 µM

Q: And the TGI [31]?
A: 4.73 µM

Q: What about the GI50 [32] of the same compound?
A: 2.24 µM

Q: And the TGI [32]?
A: 94.8 µM

Q: What about the GI50 [33] of the same compound?
A: 3.4 µM

Q: What about the TGI [33] of the same compound?
A: > 100 µM

Q: What about the GI50 [34] of the same compound?
A: 1.73 µM

Q: What about the TGI [34] of the same compound?
A: > 100 µM

Q: What about the GI50 [35] of the same compound?
A: 2.28 µM

Q: What about the TGI [35] of the same compound?
A: > 100 µM

Q: What about the GI50 [36] of the same compound?
A: 3.15 µM

Q: And the TGI [36]?
A: > 100 µM

Q: What about the GI50 [37] of the same compound?
A: 3.6 µM

Q: What about the TGI [37] of the same compound?
A: > 100 µM

Q: And the GI50 [38]?
A: 4.87 µM

Q: What about the TGI [38] of the same compound?
A: > 100 µM

Q: And the GI50 [39]?
A: 2.77 µM

Q: What about the TGI [39] of the same compound?
A: > 100 µM

Q: And the GI50 [40]?
A: 1.97 µM

Q: And the TGI [40]?
A: 6.65 µM

Q: What about the GI50 [41] of the same compound?
A: 4.08 µM

Q: What about the TGI [41] of the same compound?
A: > 100 µM

Q: What about the GI50 [42] of the same compound?
A: 1.25 µM

Q: What about the TGI [42] of the same compound?
A: 5.09 µM

Q: What about the GI50 [43] of the same compound?
A: 2.5 µM

Q: What about the TGI [43] of the same compound?
A: 8.65 µM

Q: What about the GI50 [44] of the same compound?
A: 1.46 µM

Q: What about the TGI [44] of the same compound?
A: 5.58 µM

Q: And the GI50 [45]?
A: 2.94 µM

Q: And the TGI [45]?
A: > 100 µM

Q: And the GI50 [46]?
A: 4.66 µM

Q: What about the TGI [46] of the same compound?
A: > 100 µM

Q: What about the GI50 [47] of the same compound?
A: 1.9 µM

Q: What about the TGI [47] of the same compound?
A: > 100 µM

Q: And the GI50 [48]?
A: 2.53 µM

Q: And the TGI [48]?
A: > 100 µM

Q: And the GI50 [49]?
A: 3.49 µM

Q: And the TGI [49]?
A: > 100 µM

Q: What about the GI50 [50] of the same compound?
A: 2.43 µM

Q: What about the TGI [50] of the same compound?
A: > 100 µM

Q: What about the GI50 [51] of the same compound?
A: 2.66 µM

Q: What about the TGI [51] of the same compound?
A: 9.89 µM

Q: And the GI50 [52]?
A: 1.58 µM

Q: What about the TGI [52] of the same compound?
A: > 100 µM

Q: And the GI50 [53]?
A: 2.85 µM

Q: And the TGI [53]?
A: > 100 µM

Q: And the GI50 [54]?
A: 0.49 µM

Q: What about the TGI [54] of the same compound?
A: 3.79 µM

Q: What about the GI50 [55] of the same compound?
A: 6.35 µM

Q: What about the TGI [55] of the same compound?
A: > 100 µM

Q: What about the GI50 [56] of the same compound?
A: 3.6 µM

Q: And the TGI [56]?
A: > 100 µM

Q: What about the GI50 [57] of the same compound?
A: 1.87 µM

Q: And the TGI [57]?
A: > 100 µM
